Laboratory results from patent US7163946B2 (Ligand Pharmaceuticals Incorporated, priority 2002, dated 2007).

Assays:
hPR-A = molecular target: T1, hPR-A (Homo sapiens, UniProt P06401); experiment: Receptor competitive binding assay; conditions: read-out: PR binding Ki
T1 sequence (P06401 1-769 isoform P06401-2): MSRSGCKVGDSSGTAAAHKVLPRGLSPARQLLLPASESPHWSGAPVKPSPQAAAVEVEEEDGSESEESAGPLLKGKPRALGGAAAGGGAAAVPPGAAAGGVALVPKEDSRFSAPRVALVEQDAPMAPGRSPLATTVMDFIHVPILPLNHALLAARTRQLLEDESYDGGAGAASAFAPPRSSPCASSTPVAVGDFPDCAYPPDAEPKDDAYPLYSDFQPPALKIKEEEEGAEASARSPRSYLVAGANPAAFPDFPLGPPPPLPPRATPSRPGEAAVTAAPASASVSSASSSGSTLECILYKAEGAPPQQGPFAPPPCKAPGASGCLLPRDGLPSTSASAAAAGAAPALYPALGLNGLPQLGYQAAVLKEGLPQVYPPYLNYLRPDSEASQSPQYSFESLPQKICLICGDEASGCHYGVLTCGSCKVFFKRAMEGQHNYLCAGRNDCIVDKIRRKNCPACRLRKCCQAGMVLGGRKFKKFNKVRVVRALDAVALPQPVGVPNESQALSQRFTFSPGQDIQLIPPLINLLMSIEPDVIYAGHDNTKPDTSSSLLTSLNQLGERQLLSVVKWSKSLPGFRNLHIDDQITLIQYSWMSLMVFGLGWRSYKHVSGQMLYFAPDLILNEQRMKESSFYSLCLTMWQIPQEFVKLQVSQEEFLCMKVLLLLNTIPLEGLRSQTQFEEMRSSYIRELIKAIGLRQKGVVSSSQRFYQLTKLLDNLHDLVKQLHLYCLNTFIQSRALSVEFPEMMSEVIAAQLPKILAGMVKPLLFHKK

[1] = molecular target: T2, human androgen receptor (hAR) (Homo sapiens, UniProt P10275); experiment: hAR cotransfection assay (potency ratio to hPR); assay type: cell-based; conditions: receptor-selectivity potency ratio, cotransfection assays
T2 sequence (P10275 1-920): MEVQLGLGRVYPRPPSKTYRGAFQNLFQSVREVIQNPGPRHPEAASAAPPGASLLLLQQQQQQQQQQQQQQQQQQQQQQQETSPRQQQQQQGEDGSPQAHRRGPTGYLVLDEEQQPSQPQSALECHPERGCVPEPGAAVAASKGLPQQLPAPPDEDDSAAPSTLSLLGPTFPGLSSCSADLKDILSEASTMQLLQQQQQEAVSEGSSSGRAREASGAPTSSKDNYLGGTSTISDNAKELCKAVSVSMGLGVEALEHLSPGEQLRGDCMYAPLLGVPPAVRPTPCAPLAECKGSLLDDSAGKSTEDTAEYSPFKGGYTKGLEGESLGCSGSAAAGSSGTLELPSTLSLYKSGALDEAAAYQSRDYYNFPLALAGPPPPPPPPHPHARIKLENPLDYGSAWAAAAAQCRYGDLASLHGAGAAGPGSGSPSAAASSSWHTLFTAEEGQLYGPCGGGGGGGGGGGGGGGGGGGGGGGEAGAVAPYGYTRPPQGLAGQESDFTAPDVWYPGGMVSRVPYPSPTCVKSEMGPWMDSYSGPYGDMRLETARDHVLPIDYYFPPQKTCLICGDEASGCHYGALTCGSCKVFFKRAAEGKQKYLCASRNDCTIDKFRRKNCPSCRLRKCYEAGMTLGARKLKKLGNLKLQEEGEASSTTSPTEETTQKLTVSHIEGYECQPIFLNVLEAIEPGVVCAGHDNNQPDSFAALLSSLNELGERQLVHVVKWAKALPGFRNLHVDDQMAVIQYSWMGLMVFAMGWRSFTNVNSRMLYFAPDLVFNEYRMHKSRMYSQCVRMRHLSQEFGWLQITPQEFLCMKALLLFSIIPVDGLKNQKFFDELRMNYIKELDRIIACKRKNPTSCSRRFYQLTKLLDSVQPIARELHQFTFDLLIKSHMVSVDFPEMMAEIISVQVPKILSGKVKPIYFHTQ

[2] = molecular target: T3, human estrogen receptor (hER) (Homo sapiens, UniProt P03372); experiment: hER cotransfection assay (potency ratio to hPR); assay type: cell-based; conditions: receptor-selectivity potency ratio, cotransfection assays
T3 sequence (P03372 1-595): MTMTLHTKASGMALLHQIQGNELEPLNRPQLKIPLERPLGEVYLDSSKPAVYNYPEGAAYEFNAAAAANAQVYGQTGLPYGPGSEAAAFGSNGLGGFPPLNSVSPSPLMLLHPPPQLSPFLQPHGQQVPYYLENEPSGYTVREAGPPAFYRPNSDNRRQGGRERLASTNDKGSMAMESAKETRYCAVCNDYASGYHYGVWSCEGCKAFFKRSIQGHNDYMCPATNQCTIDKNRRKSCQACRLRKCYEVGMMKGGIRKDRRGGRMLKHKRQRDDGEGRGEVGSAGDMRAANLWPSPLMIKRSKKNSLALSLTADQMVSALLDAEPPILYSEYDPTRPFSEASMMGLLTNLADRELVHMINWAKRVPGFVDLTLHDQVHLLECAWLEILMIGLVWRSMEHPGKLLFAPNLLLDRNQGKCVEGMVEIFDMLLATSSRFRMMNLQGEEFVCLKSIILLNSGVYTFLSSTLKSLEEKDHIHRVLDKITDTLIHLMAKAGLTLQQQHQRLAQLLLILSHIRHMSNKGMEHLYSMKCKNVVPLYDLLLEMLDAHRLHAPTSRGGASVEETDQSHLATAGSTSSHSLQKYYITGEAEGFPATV

Row | SMILES | Ki (hPR-A) [nM] | hAR EC50 or IC50/hPR EC50 [1] | hER EC50 or IC50/hPR EC50 [2]
1 | CC1=CC(C)(C)Nc2ccc3c(c21)/C(=C/Br)Oc1c(F)cc(F)cc1-3 [Compound 29, 7,9-difluoro-5(Z)-bromomethylidene-1,2-dihydro-2,2,4-trimethyl-5H-chromeno[3,4-f]quinoline] | 7 | 6 | >1000
2 | CC1=CC(C)(C)Nc2ccc3c(c21)/C(=C/c1ccccc1)Oc1c(F)cc(F)cc1-3 [Compound 10, 7,9-difluoro-5(Z)-benzylidene-1,2-dihydro-2,2,4-trimethyl-5H-chromeno[3,4-f]quinoline] | 6.8 | 320 | >1000
3 | CC1=CC(C)(C)Nc2ccc3c(c21)C(c1ccc(Cl)c(C)c1)Oc1c(F)cc(F)cc1-3 (racemic) [Compound 37, (±)-7,9-difluoro-5-(4-chloro-3-methylphenyl)-1,2-dihydro-2,2,4-trimethyl-5H-chromeno[3,4-f]quinoline] | 2.2 | 558 | >1000
4 | CC1=CC(C)(C)Nc2ccc3c(c21)C(c1cccc(Cl)c1)Oc1c(F)cc(F)cc1-3 (racemic) [Compound 41, (±)-7,9-difluoro-5-(3-chlorophenyl)-1,2-dihydro-2,2,4-trimethyl-5H-chromeno[3,4-f]quinoline] | 2.8 | 252 | >1000
5 | CC1=CC(C)(C)Nc2ccc3c(c21)C(c1ccccc1)Oc1c(F)cc(F)cc1-3 (racemic) [Compound 33, (±)-7,9-difluoro-5-phenyl-1,2-dihydro-2,2,4-trimethyl-5H-chromeno[3,4-f]quinoline] | 2.7 | 37 | >1000
6 | COc1ccc(F)cc1/C=C1\Oc2c(F)cc(F)cc2-c2ccc3c(c21)C(C)=CC(C)(C)N3 [Compound 26, 7,9-difluoro-5(Z)-(2-methoxy-5-fluorobenzylidene)-1,2-dihydro-2,2,4-trimethyl-5H-chromeno[3,4-f]quinoline] | 9 | 742 | >1000
7 | CC1=CC(C)(C)Nc2ccc3c(c21)/C(=C/c1ccncc1C)Oc1c(F)cc(F)cc1-3 [Compound 20, 7,9-difluoro-5(Z)-(3-methyl-4-picolylidene)-1,2-dihydro-2,2,4-trimethyl-5H-chromeno[3,4-f]quinoline] | 2.9 | 8 | >1000
8 | CC1=CC(C)(C)Nc2ccc3c(c21)/C(=C/c1ccncc1)Oc1c(F)cc(F)cc1-3 [Compound 14, 7,9-difluoro-5(Z)-(4-picolylidene)-1,2-dihydro-2,2,4-trimethyl-5H-chromeno[3,4-f]quinoline] | 6 | 54 | >1000
9 | COc1ccccc1/C=C1\Oc2c(F)cc(F)cc2-c2ccc3c(c21)C(C)=CC(C)(C)N3 [Compound 18, 7,9-difluoro-5(Z)-(2-methoxybenzylidene)-1,2-dihydro-2,2,4-trimethyl-5H-chromeno[3,4-f]quinoline] | 3.9 | 170 | >1000

The remaining compounds from weak to strong by Ki (hPR-A), led by results:

Row | Ki (hPR-A) [nM] | hAR EC50 or IC50/hPR EC50 [1] | hER EC50 or IC50/hPR EC50 [2] | SMILES
10 | 9.7 | 2 | >1000 | CC1=CC(C)(C)Nc2ccc3c(c21)/C(=C/c1cccc(F)c1)Oc1c(F)cc(F)cc1-3 [Compound 15, 7,9-difluoro-5(Z)-(3-fluorobenzylidene)-1,2-dihydro-2,2,4-trimethyl-5H-chromeno[3,4-f]quinoline]
11 | 9.5 | 622 | >1000 | CC1=CC(C)(C)Nc2ccc3c(c21)/C(=C/c1cc(F)ccc1F)Oc1c(F)cc(F)cc1-3 [Compound 17, 7,9-difluoro-5(Z)-(2,5-difluorobenzylidene)-1,2-dihydro-2,2,4-trimethyl-5H-chromeno[3,4-f]quinoline]
12 | 8.5 | >1000 | >1000 | CC1=CC(C)(C)Nc2ccc3c(c21)/C(=C/c1cc(F)ccc1C)Oc1c(F)cc(F)cc1-3 [Compound 19, 7,9-difluoro-5(Z)-(2-methyl-5-fluorobenzylidene)-1,2-dihydro-2,2,4-trimethyl-5H-chromeno[3,4-f]quinoline]
13 | 7.9 | 517 | >1000 | CC1=CC(C)(C)Nc2ccc3c(c21)/C(=C/c1cccs1)Oc1c(F)cc(F)cc1-3 [Compound 31, 7,9-difluoro-5(Z)-(2-thienylmethylidene)-1,2-dihydro-2,2,4-trimethyl-5H-chromeno[3,4-f]quinoline]
14 | 6.5 | 136 | 685 | CC1=CC(C)(C)Nc2ccc3c(c21)C(c1cc2ccccc2s1)Oc1c(F)cc(F)cc1-3 (racemic) [Compound 63, (±)-7,9-difluoro-5-(benzo[b]thien-2-yl)-1,2-dihydro-2,2,4-trimethyl-5H-chromeno[3,4-f]quinoline]
15 | 3.5 | 100 | >1000 | CC#CC1Oc2c(F)cc(F)cc2-c2ccc3c(c21)C(C)=CC(C)(C)N3 (racemic) [Compound 74, (±)-7,9-difluoro-5-(1-propynyl)-1,2-dihydro-2,2,4-trimethyl-5H-chromeno[3,4-f]quinoline]
16 | 2.5 | 8.5 | >1000 | CC1=CC(C)(C)Nc2ccc3c(c21)C(c1cccc(C)c1)Oc1c(F)cc(F)cc1-3 (racemic) [Compound 34, (±)-7,9-difluoro-5-(3-methylphenyl)-1,2-dihydro-2,2,4-trimethyl-5H-chromeno[3,4-f]quinoline]
